Earlier results in patent US7456023B2, “Reagent for luminescence optical determination of an analyte” (Roche Diagnostics Operations, Inc., priority 2000, dated 2008).

Columns and labels:
[1] = for Absorption wavelength, deprotonated: deprotonated form; for Absorption wavelength, protonated: protonated form

Row | Compound | Absorption wavelength, deprotonated [1] | Absorption wavelength, protonated [1] | pKa
1 | O=S1(=O)OC(c2cc(Br)c(O)c(Br)c2)(c2cc(Br)c(O)c(Br)c2)c2ccccc21 [Bromophenol blue] | 617 nm | 430 nm | –
2 | Cc1c(C2(c3cc(C(C)C)c(O)c(Br)c3C)OS(=O)(=O)c3ccccc32)cc(C(C)C)c(O)c1Br [Bromothymol blue] | 615-618 nm | 430-435 nm | –
3 | Cc1ccc(O)c(N=Nc2c(O)cc(S(=O)(=O)O)c3ccccc23)c1 [Calmagit] | 605 nm | 530 nm | –
4 | O=C1OC(c2ccc(O)c3ccccc23)(c2ccc(O)c3ccccc23)c2ccccc21 [Naphthol-phthalein] | 661 nm | 428 nm | –
5 | Nitrazine yellow | 590 nm | 460 nm | 6.5
6 | Dibromoxylenol blue | 614 nm | 420 nm | –
7 | O=C1C=CC(=Nc2ccc(O)cc2)C=C1Cl [o-chlorophenol-indophenol] | 625 nm | 555 nm | –
